Several values for one entry are separate records, joined by “and”; a condition that tells them apart may be missing. Equal entries are not always repeated. Bridge positions count the residues as written; N and C are the ends. Peptide text beside a SMILES is read from it.
Legend:
Assay in all cases: Displacement of 125I-[Leu8,D-Trp22,Tyr25]SRIF-28 from cloned receptor, membrane pellet autoradiography
Type in all cases: binding
[1] = target: T1, hSSTR1 (Homo sapiens, UniProt P30872)
T1 construct: expressed in transfected cells; host or cells: CHO-K1 cells and CCL39 cells
T1 sequence (P30872 whole entry): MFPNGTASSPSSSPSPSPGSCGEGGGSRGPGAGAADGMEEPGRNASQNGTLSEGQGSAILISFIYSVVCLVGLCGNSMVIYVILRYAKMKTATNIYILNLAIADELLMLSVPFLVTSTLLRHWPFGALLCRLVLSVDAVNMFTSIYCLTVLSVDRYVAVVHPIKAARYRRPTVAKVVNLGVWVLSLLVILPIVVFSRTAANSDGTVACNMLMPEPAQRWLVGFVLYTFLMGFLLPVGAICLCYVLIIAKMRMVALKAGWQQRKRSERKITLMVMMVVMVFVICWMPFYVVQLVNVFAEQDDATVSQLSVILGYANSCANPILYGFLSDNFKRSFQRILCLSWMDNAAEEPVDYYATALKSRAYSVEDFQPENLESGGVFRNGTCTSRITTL
Protocol: (§1) In vitro Bioassay: The effects of the various somatostatin analogs are tested in vitro for their ability to bind to isolated cloned receptors expressed on CHO-K1 cells and CCL39 cells. CHO-K1 cells are grown in Ham's F-12 medium, and CCL39 cells are grown in Dulbecco's modified Eagle's medium/Ham's F-12(1:1) mix, supplemented with 10% fetal bovine serum, 100 U/ml penicillin and 100 μg/ml streptomycin, in humidified air containing 5% CO2 at 37° C.
(§2) Cells are washed twice with and scraped into ice-cold 0.05 M Tris-HCl (pH 7.4), collected by centrifugation, and homogenized using a rotor/stator/system in the same buffer. After centrifugation at 120 g for 5 min at 4° C., the supernatant is collected and centrifuged again at 48,000 g for 30 min at 4° C. The resulting pellet is resuspended in ice-cold Tris buffer, transferred into a microfuge tube, and centrifuged at 20,000 g for 15 min at 4° C. After withdrawal of the supernatant, the membrane pellet is stored at −80° C.
Receptor autoradiography is performed on 20 μm thick cryostat sections of the membrane pellets, mounted on microscope slides, and then stored at −20° C. […] […] […] IC50 values are calculated after quantification of the data using a computer-assisted image processing system as known in this art.
(§3) The numbers in parentheses indicate the number of times the particular binding test was carried out.

[2] = target: T2, hSSTR5 (Homo sapiens, UniProt P35346)
T2 construct: expressed in transfected cells; host or cells: CHO-K1 cells and CCL39 cells
T2 sequence (P35346 whole entry): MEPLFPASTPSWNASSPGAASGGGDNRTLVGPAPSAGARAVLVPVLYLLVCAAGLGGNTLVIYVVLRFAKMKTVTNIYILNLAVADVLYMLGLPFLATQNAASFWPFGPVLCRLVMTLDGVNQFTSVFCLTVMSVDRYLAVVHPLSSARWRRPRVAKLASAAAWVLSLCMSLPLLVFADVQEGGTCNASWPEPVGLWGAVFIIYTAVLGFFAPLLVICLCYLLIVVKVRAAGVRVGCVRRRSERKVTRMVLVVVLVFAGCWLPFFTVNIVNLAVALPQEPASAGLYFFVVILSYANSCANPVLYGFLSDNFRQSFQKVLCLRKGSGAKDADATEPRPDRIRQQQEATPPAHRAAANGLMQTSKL
Protocol: as §1, §2
(§4) Receptor autoradiography is performed on 20 μm thick cryostat sections of the membrane pellets, mounted on microscope slides, and then stored at −20° C. […] Increasing concentrations of the unlabeled peptide are used ranging from 0.1-1000 nM. […] IC50 values are calculated after quantification of the data using a computer-assisted image processing system as known in this art.
as §3

[3] = target: T3, hSSTR4 (Homo sapiens, UniProt P31391); details: for IC50: inhibition of 125I-SRIF-28 radioligand binding, cloned human receptor
T3 construct: expressed in transfected cells; host or cells: CHO-K1 cells and CCL39 cells
T3 sequence (P31391 whole entry): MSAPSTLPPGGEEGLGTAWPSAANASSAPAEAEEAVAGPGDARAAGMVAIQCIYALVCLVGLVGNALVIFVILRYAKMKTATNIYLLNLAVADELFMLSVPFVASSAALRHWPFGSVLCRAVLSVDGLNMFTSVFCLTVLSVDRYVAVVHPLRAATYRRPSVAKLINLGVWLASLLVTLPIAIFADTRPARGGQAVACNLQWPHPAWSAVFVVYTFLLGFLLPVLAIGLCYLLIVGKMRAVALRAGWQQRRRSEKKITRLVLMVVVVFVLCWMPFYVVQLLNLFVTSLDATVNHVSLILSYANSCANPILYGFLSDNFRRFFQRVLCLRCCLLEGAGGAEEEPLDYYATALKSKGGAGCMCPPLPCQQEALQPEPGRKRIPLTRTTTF
Protocol: as §1, §2, §4, §3

[4] = target: T4, hSSTR3 (Homo sapiens, UniProt P32745)
T4 construct: expressed in transfected cells; host or cells: CHO-K1 cells and CCL39 cells
T4 sequence (P32745 whole entry): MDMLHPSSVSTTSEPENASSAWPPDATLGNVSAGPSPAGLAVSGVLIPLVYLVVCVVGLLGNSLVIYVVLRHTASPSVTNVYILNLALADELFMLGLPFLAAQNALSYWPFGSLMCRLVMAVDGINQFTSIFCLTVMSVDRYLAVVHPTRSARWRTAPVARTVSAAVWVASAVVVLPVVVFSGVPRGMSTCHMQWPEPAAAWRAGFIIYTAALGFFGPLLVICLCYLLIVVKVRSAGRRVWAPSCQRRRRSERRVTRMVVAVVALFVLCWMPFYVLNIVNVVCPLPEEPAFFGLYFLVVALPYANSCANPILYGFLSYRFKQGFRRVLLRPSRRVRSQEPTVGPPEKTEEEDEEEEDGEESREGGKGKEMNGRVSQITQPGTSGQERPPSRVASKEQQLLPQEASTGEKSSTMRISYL
Protocol: as §1, §2, §4, §3

[5] = target: T5, hSSTR2 (Homo sapiens, UniProt P30874)
T5 construct: expressed in transfected cells; host or cells: CHO-K1 cells and CCL39 cells
T5 sequence (P30874 whole entry): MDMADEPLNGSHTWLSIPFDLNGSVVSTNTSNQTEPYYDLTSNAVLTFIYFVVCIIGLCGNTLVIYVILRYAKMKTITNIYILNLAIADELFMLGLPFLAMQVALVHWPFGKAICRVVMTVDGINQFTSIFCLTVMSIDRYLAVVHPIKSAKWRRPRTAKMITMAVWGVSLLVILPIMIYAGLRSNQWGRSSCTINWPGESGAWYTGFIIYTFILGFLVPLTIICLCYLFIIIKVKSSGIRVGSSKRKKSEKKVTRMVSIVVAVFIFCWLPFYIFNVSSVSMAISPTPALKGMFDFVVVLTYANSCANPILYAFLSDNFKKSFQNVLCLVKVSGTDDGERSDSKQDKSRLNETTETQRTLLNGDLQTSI
Protocol: as §1, §2, §4, §3

Row | Structure (SMILES) | effect on binding of the SRIF-28 radioligand to human SSTR1 ([1]; at 100 nM) | effect on binding of the SRIF-28 radioligand to SSTR5 ([2]; at 100 nM) | IC50 ([2]; inhibition of 125I-SRIF-28 radioligand binding, cloned human receptor) | selectivity in binding to SSTR4 compared with the other 4 receptors (in words) [3] | IC50 [3] | effect on binding of the SRIF-28 radioligand to SSTR3 ([4]; at 100 nM) | effect on binding of the SRIF-28 radioligand to human SSTR2 ([5]; at 100 nM) | concentration below which it does not bind to human SSTR1 [1] | concentration below which it does not bind to human SSTR5 [2] | concentration below which it does not bind to human SSTR3 [4] | concentration below which it does not bind to human SSTR2 [5]
1 | C[C@@H](O)[C@@H]1NC(=O)[C@H](CCCCN)NC(=O)[C@H](Cc2c[nH]c3ccccc23)NC(=O)[C@H](Cc2ccc(N)cc2)NC(=O)[C@H](Cc2ccccc2)NC(=O)[C@@H](N)CSSC[C@@H](C(=O)O)NC(=O)[C@H](Cc2ccccc2)NC1=O [Peptide No. 1, (cyclo)H-Cys-Phe-4Aph-Trp-Lys-Thr-Phe-Cys-OH] | minimal effects | very minimal effect | 1000 nM | selectively bound to SSTR4 | ~1.2 nM and 1.2 nM | very minimal effect | minimal effects |  |  |  | 
2 | C[C@@H]1NC(=O)[C@H](Cc2ccccc2)NC(=O)[C@@H](N)CSSC[C@@H](C(=O)O)NC(=O)[C@H](Cc2ccccc2)NC(=O)[C@H]([C@@H](C)O)NC(=O)[C@H](CCCCN)NC(=O)[C@H](Cc2c[nH]c3ccccc23)NC1=O [Peptide No. 12] (H-CFAWKTFC-OH; disulfide 1-8) |  |  |  | likewise selective | ~0.84 nM and 0.84 nM |  |  | ≥ 750 nM | ≥ 630 nM | ≥ 750 nM | ≥ 750 nM

Reference: patent US7238775B2, “Receptor(SSTR4)-selective somatostatin analogs” (The Salk Institute for Biological Studies, priority 2002, dated 2007)
